# Bridges are numbered along the chain shown (N, C = ends). Where no end group is shown, it is not given here.
# What was measured:
# ArSSR3 = assay: GFP-aequorin luminescence receptor activation assay, CHO-K1 cells, ArSSR3 + Gα16; assay type: cell-based, Asterias rubens
# [1] = test system: cardiac stomach preparations from A. rubens; assay: in vitro relaxation of cardiac stomach preparations; parameters: species or system Asterias rubens
# Protocol: Synthetic ArSS2 ([…], with a disulfide bridge between the cysteine residues) was custom synthesized (Peptide Protein Research Ltd, Fareham, UK) to enable testing of its pharmacological effects on in vitro preparations of organs/muscles from A. rubens. ArSS2 was tested for its in vitro effects on the contractility of tube foot, apical muscle and cardiac stomach preparations from at least six different specimens of A. rubens. Individual tube foot preparations were dissected from starfish arms with their corresponding ampulla intact. Then cotton ligatures were tied around the ambulacral body wall and the tube foot disc and then the external epithelium of the tube foot was scraped off using a blunt scalpel blade to facilitate penetration of peptides when tested in vitro, as described previously. Apical muscle preparations were dissected from the aboral body wall with approximately 1 cm strips of apical muscle tied at each end with cotton ligatures. Cardiac stomach preparations were dissected as described previously and then were tied at the aboral side of the cardiac stomach and around the oesophagus with cotton ligatures. The dissected preparations were tied to a fixed metal hook orally and to a high-grade isotonic transducer (MLT0015; ADInstruments Ltd; Oxford, UK) aborally, suspended in a 20 ml aerated organ bath containing artificial seawater at approximately 11°C. The transducer was connected via a bridge amplifier (FE221 Bridge Amp, ADInstruments Ltd, Oxford, UK) to data acquisition hardware (PowerLab 2/36, ADInstruments Ltd, Oxford, UK). Data collected from PowerLab were visualized as traces and analysed using LabChart (v. 8.0.7) software installed on a laptop computer (Lenovo E540, Windows 7 Professional).
# To examine the effects of ArSS2 on tube foot and cardiac stomach preparations, 10^−6 M acetylcholine (ACh) or artificial seawater (ASW) containing 30 mM added KCl was used to induce contraction of these preparations, respectively. Once a stable baseline contracted state was achieved, synthetic ArSS2 was added into the organ bath to sequentially achieve final concentrations in the range of 10^−10 to 10^−6 M. For these experiments, the contracting effect of 10^−6 M ACh or ASW containing 30 mM added KCl was defined as 100% and the relaxing effects of ArSS2 were then calculated as a percentage reversal of the 100% contracted state.
# Experiments were performed where the effects of ArSS2, S2 and asterotocin (at 10^−7 and 10^−6 M) on cardiac stomach preparations (n = 6) were compared. For these experiments, the effect of 10^−7 or 10^−6 M S2 was defined as 100% and the effect of asterotocin or ArSS2 was calculated as a % of the effect of S2. To determine if there were significant differences in magnitude of the relaxing effects of the three peptides on cardiac stomach preparations, data were analysed statistically using a two-tailed Student's t-test in Prism 6.
# [2] = test system: cardiac stomach of A. rubens; assay: in vivo cardiac stomach eversion after injection into the perivisceral coelom; parameters: species or system Asterias rubens; details: n = 10
# Protocol: When starfish (A. rubens) feed, the cardiac stomach is relaxed and everted out of the mouth over the digestible soft tissues of prey (e.g. mussels). […] Therefore, because ArSS2 causes relaxation of cardiac stomach preparations in vitro, we investigated if ArSS2 also triggers cardiac stomach eversion when injected in vivo. Firstly, 15 medium-sized starfish were starved for one week to normalize their physiological status. A Hamilton […] 50 μl syringe (Sigma-Aldrich; Gillingham, UK) was used to inject 10 μl 1 mM ArSS2, or 10 μl 1 mM asterotocin (positive control) or 10 μl water (negative control) into the […] coelom of starfish. ArSS2 was tested on five individuals firstly and then the next day, asterotocin was tested on the same batch of five individuals. For another five individuals, asterotocin was tested first and then ArSS2 was tested on the following day. The remaining five individuals were injected with water as a control. Thus, both ArSS2 and asterotocin were tested on ten starfish. For each starfish, the test agent was injected via two sites in the dorsal body wall of the arms proximal to the junctions with the central disc region. Care was taken to inject test agents into the […] coelom and not into the cardiac stomach.
# [3] = 10^−7 M, KCl-contracted, mean, n = 6
# [4] = 10 µl 10^−3 M into perivisceral coelom
# Sequence of ArSSR3 (as listed by the source): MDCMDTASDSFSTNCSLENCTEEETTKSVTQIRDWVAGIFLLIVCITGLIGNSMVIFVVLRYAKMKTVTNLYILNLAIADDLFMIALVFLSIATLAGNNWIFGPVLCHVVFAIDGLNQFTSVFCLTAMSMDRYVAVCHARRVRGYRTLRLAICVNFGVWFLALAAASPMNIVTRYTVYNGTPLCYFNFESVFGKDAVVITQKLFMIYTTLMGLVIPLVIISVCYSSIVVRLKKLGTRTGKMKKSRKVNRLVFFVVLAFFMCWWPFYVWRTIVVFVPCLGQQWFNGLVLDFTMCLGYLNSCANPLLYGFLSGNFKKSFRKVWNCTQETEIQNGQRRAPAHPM
sequence,measurement,setting,value
RAKNARCMADFWKGRGLVDC (disulfide 7-20 (inferred)) [ArSS2],EC50,"ArSSR3; ArSSR3 + Gα16 in CHO-K1 cells expressing GFP-aequorin (G5A), peptide 10^−21 to 10^−4 M, luminescence over 35 s, mean of at least three independent experiments, three repeats each, read-out: half-maximal response concentration (EC50)",1.4 nM
same,mean total luminescence response relative to background,"ArSSR3; ArSSR3, 10^−5 M, background detected with assay media or with ArSS1",46 575 times the background luminescence
same,luminescence compared with control,"ArSSR3; ArSSR3, 10^−5 M, vs BSA media (control) and, for ArSS2, vs ArSS1, one-way ANOVA, Bonferroni",significantly higher than the luminescence in cells exposed to ArSS1 or BSA media (control)
same,triggering of luminescence,"ArSSR3; ArSSR3, 10^−21 to 10^−4 M",caused dose-dependent luminescence
same,extent of relaxation of cardiac stomach preparations,[1]; 10^−6 M,maximal relaxation
same,magnitude of cardiac stomach relaxing action compared with S2,"[1]; 10^−6 M, KCl-contracted, n = 6",not significantly different to the effect S2
same,reversal of KCl-induced cardiac stomach contraction,"[1]; 10^−6 M, contraction induced by 30 mM KCl = 100%, artificial seawater, approximately 11°C, mean ± s.e.m., n = 10",60 ± 18%
same,magnitude of cardiac stomach relaxing action relative to S2,[1]; [3],1.5 times the effect of S2
same,magnitude of cardiac stomach relaxing action relative to asterotocin,[1]; [3],44 % of the effect of asterotocin
same,relaxing effect compared with S2,"[1]; 10^−7 M, two-tailed Student's t-test p = 0.0303, n = 6",significantly larger than the effect of S2
same,relaxation of cardiac stomach preparations,"[1]; pre-contracted with 30 mM KCl, tested 10^−10 to 10^−6 M",dose-dependent relaxation of cardiac stomach preparations at concentrations between 10^−9 and 10^−6 M
same,"mean maximal eversion, area of everted cardiac stomach","[2]; 10 µl 10^−3 M into perivisceral coelom, 10 min recording",approximately 10 % of the area of the central disc region
same,incidence of cardiac stomach eversion,[2]; [4],all of the animals
same,time of mean maximal eversion after injection,[2]; [4],approximately 4 min
same,magnitude of cardiac stomach eversion compared with asterotocin,[2]; 10 µl 10^−3 M,much less than that induced by asterotocin
